Legend:
Type in all cases: in vivo
[1] = tested on: Scirpus juncoides; assay: Test Example 1: herbicidal activity, application before weed generation in submerged conditions (symbol B); conditions: application herbicide amount 320 g/ha
Method in brief: (§1)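 Steps: alluvial soil flooded to 4 cm; weed seeds sown together; rice seedlings (2.5 leaf) transplanted; diluted emulsion applied to water surface the same day as sowing; plants grown at 25–30 °C in greenhouse; herbicidal effect rated on a 0–5 scale at 3 weeks.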

[2] = tested on: Cyperus difformis; assay: Test Example 3: herbicidal effect by foliage application, Wagner pot (symbol E); conditions: application herbicide amount 320 g/ha
Method in brief: (§2)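 In a shallow-flooded alluvial soil system held at 25–30 °C, plants including rice grew for 14 days and were then sprayed over the foliage with emulsion diluted to a fixed herbicide amount. Visual rating followed at 3 weeks.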

[3] = tested on: Galium spurium; assay: Test Example 5: herbicidal effect by foliage application, plastic box (symbol Q); conditions: 320 g/ha, 3 weeks after application
Method in brief: (§3)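 Emulsion formulation, diluted with water to the intended rate, was applied uniformly to leaves by small sprayer. Recipients were 14-day greenhouse-grown seedlings (25° C. to 30° C.). Assessment followed at 3 weeks.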

[4] = tested on: Digitaria ciliaris; assay: Test Example 5: herbicidal effect by foliage application, plastic box (symbol F); conditions: 320 g/ha, 3 weeks after application
Method in brief: as §3

[5] = tested on: Amaranthus retroflexus; assay: Test Example 5: herbicidal effect by foliage application, plastic box (symbol N); conditions: 320 g/ha, 3 weeks after application
Method in brief: as §3

[6] = tested on: Chenopodium album; assay: Test Example 5: herbicidal effect by foliage application, plastic box (symbol O); conditions: 320 g/ha, 3 weeks after application
Method in brief: as §3

[7] = tested on: directly sowed rice plant; assay: Test Example 3: effect on crop by foliage application, Wagner pot (symbol b); conditions: application herbicide amount 320 g/ha
Method in brief: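 Steps: fill a 1/10000-are Wagner pot with alluvial soil; add water and mix to submerge at 0.1–0.5 cm depth; sow rice plus Echinochloa crus-galli var. crus-galli, Leptochloa chinensis and Cyperus difformis; grow in a 25–30 °C greenhouse.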

[8] = tested on: Veronica persica; assay: Test Example 5: herbicidal effect by foliage application, plastic box (symbol R); conditions: 320 g/ha, 3 weeks after application
Method in brief: as §3

[9] = tested on: Avena fatua; assay: Test Example 5: herbicidal effect by foliage application, plastic box (symbol I); conditions: 320 g/ha, 3 weeks after application
Method in brief: as §3

[10] = tested on: beet; assay: Test Example 5: effect on crop by foliage application, plastic box (symbol f); conditions: 320 g/ha, 3 weeks after application
Method in brief: (§4)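 Foliage-application test plants come from spot sowing in sterilized diluvial soil under a soil layer of about 1.5 cm, grown at 25° C. to 30° C. in a greenhouse.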

[11] = tested on: rapeseed; assay: Test Example 5: effect on crop by foliage application, plastic box (symbol g); conditions: 320 g/ha, 3 weeks after application
Method in brief: as §4

[12] = tested on: Apera spica-venti; assay: Test Example 5: herbicidal effect by foliage application, plastic box (symbol L); conditions: 320 g/ha, 3 weeks after application
Method in brief: as §3

[13] = tested on: Leptochloa chinensis; assay: Test Example 3: herbicidal effect by foliage application, Wagner pot (symbol D); conditions: application herbicide amount 320 g/ha
Method in brief: as §2

[14] = tested on: rice plant; assay: Test Example 5: effect on crop by foliage application, plastic box (symbol b); conditions: 320 g/ha, 3 weeks after application
Method in brief: as §4

[15] = tested on: transplanted rice plant; assay: Test Example 1: effect on crop, application before weed generation in submerged conditions (symbol a); conditions: application herbicide amount 320 g/ha
Method in brief: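 Rice at 2.5 leaf stage transplanted into submerged soil (4 cm depth) sown with three weed species; herbicide applied before weed emergence.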

[16] = tested on: Echinochloa crus-galli var. crus-galli; assay: Test Example 3: herbicidal effect by foliage application, Wagner pot (symbol H); conditions: application herbicide amount 320 g/ha
Method in brief: as §2

[17] = tested on: Echinochloa crus-galli var. crus-galli; assay: Test Example 5: herbicidal effect by foliage application, plastic box (symbol H); conditions: 320 g/ha, 3 weeks after application
Method in brief: as §3

[18] = tested on: Abutilon theophrasti; assay: Test Example 5: herbicidal effect by foliage application, plastic box (symbol M); conditions: 320 g/ha, 3 weeks after application
Method in brief: as §3

[19] = tested on: Lolium multiflorum Lam.; assay: Test Example 5: herbicidal effect by foliage application, plastic box (symbol K); conditions: 320 g/ha, 3 weeks after application
Method in brief: as §3

[20] = tested on: Monochoria vaginalis; assay: Test Example 1: herbicidal activity, application before weed generation in submerged conditions (symbol C); conditions: application herbicide amount 320 g/ha
Method in brief: as §1

[21] = tested on: Alopecurus myosuroides; assay: Test Example 5: herbicidal effect by foliage application, plastic box (symbol J); conditions: 320 g/ha, 3 weeks after application
Method in brief: as §3

[22] = tested on: corn; assay: Test Example 5: effect on crop by foliage application, plastic box (symbol c); conditions: 320 g/ha, 3 weeks after application
Method in brief: as §4

[23] = tested on: wheat; assay: Test Example 5: effect on crop by foliage application, plastic box (symbol e); conditions: 320 g/ha, 3 weeks after application
Method in brief: as §4

[24] = tested on: Stellaria media; assay: Test Example 5: herbicidal effect by foliage application, plastic box (symbol P); conditions: 320 g/ha, 3 weeks after application
Method in brief: as §3

[25] = tested on: soybean; assay: Test Example 5: effect on crop by foliage application, plastic box (symbol d); conditions: 320 g/ha, 3 weeks after application
Method in brief: as §4

[26] = tested on: Echinochloa oryzacola Vasing.; assay: Test Example 1: herbicidal activity, application before weed generation in submerged conditions (symbol A); conditions: application herbicide amount 320 g/ha
Method in brief: as §1

[27] = tested on: Setaria viridis; assay: Test Example 5: herbicidal effect by foliage application, plastic box (symbol G); conditions: 320 g/ha, 3 weeks after application
Method in brief: as §3

Compound | Herbicidal effect grade, B: Scirpus juncoides [1] | Q: Galium spurium, herbicidal effect (criteria of Test Example 1) [3] | F: Digitaria ciliaris, herbicidal effect (criteria of Test Example 1) [4] | N: Amaranthus retroflexus, herbicidal effect (criteria of Test Example 1) [5] | O: Chenopodium album, herbicidal effect (criteria of Test Example 1) [6] | R: Veronica persica, herbicidal effect (criteria of Test Example 1) [8] | I: Avena fatua, herbicidal effect (criteria of Test Example 1) [9] | f: beet, effect on crop (criteria of Test Example 1) [10] | g: rapeseed, effect on crop (criteria of Test Example 1) [11] | L: Apera spica-venti, herbicidal effect (criteria of Test Example 1) [12] | b: directly sowed rice plant, effect on crop (criteria of Test Example 1) [14] | Effect grade on crop, a: transplanted rice plant [15] | H: Echinochloa crus-galli var. crus-galli, herbicidal effect (criteria of Test Example 1) [17] | M: Abutilon theophrasti, herbicidal effect (criteria of Test Example 1) [18] | K: Lolium multiflorum Lam., herbicidal effect (criteria of Test Example 1) [19] | Herbicidal effect grade, C: Monochoria vaginalis [20] | J: Alopecurus myosuroides, herbicidal effect (criteria of Test Example 1) [21] | c: corn, effect on crop (criteria of Test Example 1) [22] | e: wheat, effect on crop (criteria of Test Example 1) [23] | P: Stellaria media, herbicidal effect (criteria of Test Example 1) [24] | also measured
CCCC=Cc1cc(C)c(C2=C(O)CC(CC(C)=O)C2=O)c(C)c1 (stereo not drawn) [7-022] | 2 (Herbicidal ratio of 20% or higher and lower than 40%) | 0 (Herbicidal ratio of 5% or lower (almost no effect)) | 0 (Herbicidal ratio of 5% or lower (almost no effect)) | 0 (Herbicidal ratio of 5% or lower (almost no effect)) | 0 (Herbicidal ratio of 5% or lower (almost no effect)) | 0 (Herbicidal ratio of 5% or lower (almost no effect)) | 0 (Herbicidal ratio of 5% or lower (almost no effect)) | 0 (Herbicidal ratio of 5% or lower (almost no effect)) | 0 (Herbicidal ratio of 5% or lower (almost no effect)) | 0 (Herbicidal ratio of 5% or lower (almost no effect)) | 0 (Herbicidal ratio of 5% or lower (almost no effect)) | 3 (Herbicidal ratio of 40% or higher and lower than 70%) | 1 (Herbicidal ratio of 5% or higher and lower than 20%) | 0 (Herbicidal ratio of 5% or lower (almost no effect)) | 2 (Herbicidal ratio of 20% or higher and lower than 40%) | 3 (Herbicidal ratio of 40% or higher and lower than 70%) | 0 (Herbicidal ratio of 5% or lower (almost no effect)) | 0 (Herbicidal ratio of 5% or lower (almost no effect)) | 0 (Herbicidal ratio of 5% or lower (almost no effect)) | 0 (Herbicidal ratio of 5% or lower (almost no effect)) | herbicidal effect on E, grade 0-5 [2]: 0 (Herbicidal ratio of 5% or lower (almost no effect)); effect on crop b (directly sowed rice plant), grade 0-5 [7]: 0 (Herbicidal ratio of 5% or lower (almost no effect)); herbicidal effect on D (Leptochloa chinensis), grade 0-5 [13]: 4 (Herbicidal ratio of 70% or higher and lower than 90%); herbicidal effect on H (Echinochloa crus-galli var. crus-galli), grade 0-5 [16]: 0 (Herbicidal ratio of 5% or lower (almost no effect)); d: soybean, effect on crop (criteria of Test Example 1) [25]: 0 (Herbicidal ratio of 5% or lower (almost no effect)); Herbicidal effect grade, A: Echinochloa oryzacola Vasing. [26]: 4 (Herbicidal ratio of 70% or higher and lower than 90%); G: Setaria viridis, herbicidal effect (criteria of Test Example 1) [27]: 0 (Herbicidal ratio of 5% or lower (almost no effect))
CC(=O)CC1CC(O)=C(c2c(C)cc(-n3cncn3)cc2C)C1=O (stereo not drawn) [7-026] | 0 (Herbicidal ratio of 5% or lower (almost no effect)) | 0 (Herbicidal ratio of 5% or lower (almost no effect)) | 0 (Herbicidal ratio of 5% or lower (almost no effect)) | 0 (Herbicidal ratio of 5% or lower (almost no effect)) | 0 (Herbicidal ratio of 5% or lower (almost no effect)) | 0 (Herbicidal ratio of 5% or lower (almost no effect)) | 0 (Herbicidal ratio of 5% or lower (almost no effect)) | 0 (Herbicidal ratio of 5% or lower (almost no effect)) | 0 (Herbicidal ratio of 5% or lower (almost no effect)) | 0 (Herbicidal ratio of 5% or lower (almost no effect)) | 0 (Herbicidal ratio of 5% or lower (almost no effect)) | 0 (Herbicidal ratio of 5% or lower (almost no effect)) | 1 (Herbicidal ratio of 5% or higher and lower than 20%) | 0 (Herbicidal ratio of 5% or lower (almost no effect)) | 1 (Herbicidal ratio of 5% or higher and lower than 20%) | 0 (Herbicidal ratio of 5% or lower (almost no effect)) | 1 (Herbicidal ratio of 5% or higher and lower than 20%) | 0 (Herbicidal ratio of 5% or lower (almost no effect)) | 0 (Herbicidal ratio of 5% or lower (almost no effect)) | 0 (Herbicidal ratio of 5% or lower (almost no effect)) | E herbicidal effect grade ([2]; Table 24): 0 (Herbicidal ratio of 5% or lower (almost no effect)); b (directly sowed rice plant) effect on crop grade ([7]; Table 24): 0 (Herbicidal ratio of 5% or lower (almost no effect)); D (Leptochloa chinensis) herbicidal effect grade ([13]; Table 24): 3 (Herbicidal ratio of 40% or higher and lower than 70%); H (Echinochloa crus-galli var. crus-galli) herbicidal effect grade ([16]; Table 24): 0 (Herbicidal ratio of 5% or lower (almost no effect)); d: soybean, effect on crop (criteria of Test Example 1) [25]: 0 (Herbicidal ratio of 5% or lower (almost no effect)); Herbicidal effect grade, A: Echinochloa oryzacola Vasing. [26]: 3 (Herbicidal ratio of 40% or higher and lower than 70%); G: Setaria viridis, herbicidal effect (criteria of Test Example 1) [27]: 0 (Herbicidal ratio of 5% or lower (almost no effect))

— patent publication US11000033B2, “Ketone or oxime compound, and herbicide” (NISSAN CHEMICAL CORPORATION, priority 2014, dated 2021)
